Data set [1] is described as follows: log P by HPLC on reversed-phase columns (C 18), EEC Directive 79/831 Annex V.A8. The note with it: reversed-phase C18 HPLC column, pH 2.3, [a] HPLC, acid region pH 2.3, 0.1% aqueous phosphoric acid and acetonitrile; read-out: log p. Type of data set: physicochemical.
For data set [2], the system named is Uromyces appendiculatus. In words: Uromyces test (beans)/protective. Type of data set: in vivo. To be noted: 240 h, 100 ppm active substance, protective, evaluation 10 days after inoculation, read-out: degree of effectiveness. The protocol: (§1) • Solvents: 24.5 parts by weight of acetone • 24.5 parts by weight of dimethylacetamide • Emulsifier: 1 part by weight of alkylaryl polyglycol ether (polyoxyethylene (16) tristearylphenyl ether)
(§2) To prepare a suitable active substance composition, 1 part by weight of active substance is mixed with the given amounts of solvents and emulsifier and the concentrate is diluted to the desired concentration using water.
For the testing of protective effectiveness, young plants are sprayed with the active substance composition in the application rate given. After the spray coating has been dried on, the plants are inoculated with an aqueous suspension of the spores of the bean rust pathogen Uromyces appendiculatus and then remain in an incubation chamber at approximately 20° C. and 100% relative humidity for 1 day.
The plants are then placed in a greenhouse at approximately 21° C. and a relative humidity of approximately 90%.
Evaluation is carried out 10 days after the inoculation. In this connection, 0% means a degree of effectiveness corresponding to that of the control, while a degree of effectiveness of 100% means that no infestation is observed.

Data set [3] concerns Sphaerotheca fuliginea. Nature of the data set: Sphaerotheca test (cucumber)/protective. Type of data set: in vivo. The note with it: Podosphaera fuliginea, 168 h, 500 ppm active substance, protective, evaluation 7 days after inoculation, read-out: degree of effectiveness. The method, then: • Solvents: 49 parts by weight of N,N-dimethylformamide • Emulsifier: 1 part by weight of alkylaryl polyglycol ether (polyoxyethylene (16) tristearylphenyl ether) To prepare a suitable active substance composition, 1 part by weight of active substance is mixed with the given amounts of solvents and emulsifier and the concentrate is diluted to the desired concentration using water. For the testing of protective effectiveness, young cucumber plants are sprayed with the active substance composition in the application rate given. One day after the treatment, the plants are inoculated with a suspension of spores of Sphaerotheca fuliginea. Subsequently, the plants are placed in a greenhouse at 70% relative humidity and at a temperature of 23° C. Evaluation is carried out 7 days after the inoculation. In this connection, 0% means a degree of effectiveness corresponding to that of the control, while a degree of effectiveness of 100% means that no infestation is observed.

In data set [4] the test system is Puccinia triticina. In words: Puccinia triticina test (wheat)/protective. Format: in vivo. The note with it: 192 h, 500 ppm active substance, protective, evaluation 8 days after inoculation, read-out: degree of effectiveness. The method, then:
• Solvent: 50 parts by weight of N,N-dimethylacetamide • Emulsifier: 1 part by weight of alkylaryl polyglycol ether (polyoxyethylene (16) tristearylphenyl ether) To prepare a suitable active substance composition, 1 part by weight of active substance is mixed with the given amounts of solvent and emulsifier and the concentrate is diluted to the desired concentration using water. For the testing of protective effectiveness, young plants are sprayed with the active substance composition in the application rate given. After the spray coating has been dried on, the plants are sprayed with spores with a suspension of spores of Puccinia triticina. The plants remain in an incubation chamber at 20° C. and 100% relative humidity for 48 hours. The plants are placed in a greenhouse at a temperature of approximately 20° C. and a relative humidity of approximately 80%. Evaluation is carried out 8 days after the inoculation. In this connection, 0% means a degree of effectiveness corresponding to that of the control, while a degree of effectiveness of 100% means that no infestation is observed.

The subject of data set [5] is Septoria tritici. Nature of the data set: Septoria tritici test (wheat)/protective. Type of data set: in vivo. To be noted: Zymoseptoria tritici, 504 h, 500 ppm active substance, protective, evaluation 21 days after inoculation, read-out: degree of effectiveness. The method, then:
• Solvent: 50 parts by weight of N,N-dimethylacetamide • Emulsifier: 1 part by weight of alkylaryl polyglycol ether (polyoxyethylene (16) tristearylphenyl ether) To prepare a suitable active substance composition, 1 part by weight of active substance is mixed with the given amounts of solvent and emulsifier and the concentrate is diluted to the desired concentration using water. For the testing of protective effectiveness, young plants are sprayed with the active substance composition at the application rate given. After the spray coating has dried on, the plants are sprayed with a suspension of spores of Septoria tritici. The plants remain in an incubation chamber at 20° C. and 100% relative humidity for 48 hours. The plants are afterwards placed under a transparent hood at 15° C. and 100% relative humidity for a further 60 hours. The plants are placed in a greenhouse at a temperature of approximately 15° C. and a relative humidity of 80%. Evaluation is carried out 21 days after the inoculation. In this connection, 0% means a degree of effectiveness corresponding to that of the control, while a degree of effectiveness of 100% means that no infestation is observed.

Data set [6] deals with Alternaria solani. Nature of the data set: Alternaria test (tomato)/protective. Type of data set: in vivo. To be noted: 72 h, 100 ppm active substance, protective, evaluation 3 days after inoculation, read-out: degree of effectiveness. The protocol:
as §1, §2
For the testing of protective effectiveness, young plants are sprayed with the active substance composition in the application rate given. After the spray coating has been dried on, the plants are inoculated with an aqueous suspension of spores of Alternaria solani. The plants are then placed in an incubation chamber at approximately 20° C. and 100% relative humidity.
Evaluation is carried out 3 days after the inoculation. In this connection, 0% means a degree of effectiveness corresponding to that of the control, while a degree of effectiveness of 100% means that no infestation is observed.

Regarding `Cc1cc(Oc2nc(Cc3ccc(Cl)cc3)ns2)c(Cl)cc1N=CN1CCCCC1` [Example 4, 5-chloro-4-{[3-(4-chlorobenzyl)-1,2,4-thiadiazol-5-yl]oxy}-2-methyl-N-(piperidin-1-ylmethylidene)aniline], in data set [1], the chromatographic logP was found to be 2.53. The pest or weed control at 100 ppm in data set [2] was ≥ 70%. For the same molecule, the pest or weed control at 500 ppm in data set [3], in data set [4] and in data set [5] was ≥ 70% throughout.
Consider `Cc1cc(Oc2nc(Cc3ccc(Cl)cc3Cl)ns2)c(C)cc1N=CN(C)C(C)C` [Example 12, N′-(4-{[3-(2,4-dichlorobenzyl)-1,2,4-thiadiazol-5-yl]oxy}-2,5-dimethylphenyl)-N-methyl-N-(propan-2-yl)imidoformamide], for which the chromatographic logP in data set [1] stood at 2.24. Further, the pest or weed control at 100 ppm in data set [2] is ≥ 70%. The pest or weed control at 500 ppm in data set [3], in data set [4] and in data set [5] was ≥ 70% in each case.
Consider `CCN(C)C=Nc1cc(C)c(Oc2nc(Cc3cc(Br)ccc3C)ns2)cc1C` [Example 14, N′-(4-{[3-(5-bromo-2-methylbenzyl)-1,2,4-thiadiazol-5-yl]oxy}-2,5-dimethylphenyl)-N-ethyl-N-methylimidoformamide], for which the chromatographic logP in data set [1] is 2.28. Also, in data set [2], the pest or weed control at 100 ppm was ≥ 70%. The pest or weed control at 500 ppm in data set [3], in data set [4] and in data set [5] was ≥ 70% throughout.
Regarding `CCN(C)C=Nc1cc(C)c(Oc2nc(Cc3cccc(OC)c3)ns2)cc1C` [Example 16, N-ethyl-N′-(4-{[3-(3-methoxybenzyl)-1,2,4-thiadiazol-5-yl]oxy}-2,5-dimethylphenyl)-N-methylimidoformamide], the chromatographic logP in data set [1] is 1.7. The pest or weed control at 500 ppm in data set [3], in data set [4] and in data set [5] was ≥ 70% throughout.
Consider `Cc1cc(Oc2nc(C(C)c3ccc(Cl)cc3)ns2)c(C)cc1N=CN1CCCCC1` (stereo not drawn) [Example 18, 4-({3-[1-(4-chlorophenyl)ethyl]-1,2,4-thiadiazol-5-yl}oxy)-2,5-dimethyl-N-(piperidin-1-ylmethylidene)aniline], for which the chromatographic logP in data set [1] worked out at 2.41. Besides, the pest or weed control at 100 ppm in data set [2] is ≥ 70%. The pest or weed control at 500 ppm in data set [3] and in data set [4] was ≥ 70% in each case.
As to `Cc1cc(Oc2nc(C(C)(C)c3ccc(Cl)cc3)ns2)c(Cl)cc1N=CN1CCCCC1` [Example 29, 5-chloro-4-({3-[2-(4-chlorophenyl)propan-2-yl]-1,2,4-thiadiazol-5-yl}oxy)-2-methyl-N-(piperidin-1-ylmethylidene)aniline], the chromatographic logP in data set [1] came to 2.96. For the same molecule, the pest or weed control at 100 ppm in data set [6] was ≥ 70%. Besides, the pest or weed control at 500 ppm in data set [3], in data set [4] and in data set [5] was ≥ 70% in each case.
For `Cc1cc(Oc2nc(C(C)(C)c3ccc(Cl)cc3)ns2)c(Cl)cc1N=CN(C)C(C)C` [Example 30, N′-[5-chloro-4-({3-[2-(4-chlorophenyl)propan-2-yl]-1,2,4-thiadiazol-5-yl}oxy)-2-methylphenyl]-N-methyl-N-(propan-2-yl)imidoformamide], the chromatographic logP in data set [1] was 2.86. The pest or weed control at 500 ppm in data set [3] and in data set [4] was ≥ 70% each time.
Take `Cc1cc(Oc2nc(Cc3ccc(Br)cc3)ns2)c(C)cc1N=CN1CCCCC1` [Example 33, 4-{[3-(4-bromobenzyl)-1,2,4-thiadiazol-5-yl]oxy}-2,5-dimethyl-N-(piperidin-1-ylmethylidene)aniline]: the chromatographic logP in data set [1] was 2.17. The pest or weed control at 500 ppm in data set [3], in data set [4] and in data set [5] was ≥ 70% throughout.
Take `Cc1cc(Oc2nc(Cc3cccc(Cl)c3)ns2)c(C)cc1N=CN1CCCCC1` [Example 34, 4-{[3-(3-chlorobenzyl)-1,2,4-thiadiazol-5-yl]oxy}-2,5-dimethyl-N-(piperidin-1-ylmethylidene)aniline]: the chromatographic logP in data set [1] amounted to 2.13. The pest or weed control at 100 ppm in data set [2] is ≥ 70%. Besides, the pest or weed control at 500 ppm in data set [3], in data set [4] and in data set [5] was ≥ 70% throughout.
In the case of `Cc1cc(Oc2nc(C3(c4ccc(Cl)cc4)CC3)ns2)c(C)cc1N=CN1CCCCC1` [Example 38, 4-({3-[1-(4-chlorophenyl)cyclopropyl]-1,2,4-thiadiazol-5-yl}oxy)-2,5-dimethyl-N-(piperidin-1-ylmethylidene)aniline], in data set [1], the chromatographic logP worked out at 2.6. The pest or weed control at 100 ppm in data set [6] is ≥ 70%. The pest or weed control at 500 ppm in data set [3], in data set [4] and in data set [5] was ≥ 70% in each case.
With `Cc1cc(Oc2nc(C3(c4ccc(Cl)cc4)CC3)ns2)c(C)cc1N=CN(C)C(C)C` [Example 39, N′-[4-({3-[1-(4-chlorophenyl)cyclopropyl]-1,2,4-thiadiazol-5-yl}oxy)-2,5-dimethylphenyl]-N-methyl-N-(propan-2-yl)imidoformamide], the chromatographic logP in data set [1] came out at 2.57. Further, in data set [6], the pest or weed control at 100 ppm is ≥ 70%. Further, the pest or weed control at 500 ppm in data set [3], in data set [4] and in data set [5] was ≥ 70% in each case.
As to `Cc1cc(Oc2nc(C3(c4ccc(Cl)cc4)CC3)ns2)c(Cl)cc1N=CN(C)C(C)C` [Example 41, N′-[5-chloro-4-({3-[1-(4-chlorophenyl)cyclopropyl]-1,2,4-thiadiazol-5-yl}oxy)-2-methylphenyl]-N-methyl-N-(propan-2-yl)imidoformamide], the chromatographic logP in data set [1] is 2.71. In addition, the pest or weed control at 500 ppm in data set [3], in data set [4] and in data set [5] was ≥ 70% in each case.
Regarding `Cc1cc(Oc2nc(Cc3ccc(Cl)c(Cl)c3)ns2)c(C)cc1N=CN1CCCCC1` [Example 48, 4-{[3-(3,4-dichlorobenzyl)-1,2,4-thiadiazol-5-yl]oxy}-2,5-dimethyl-N-(piperidin-1-ylmethylidene)aniline], in data set [2], the pest or weed control at 100 ppm was ≥ 70%. The pest or weed control at 500 ppm in data set [3] was ≥ 70%.
On to `COc1ccccc1Cc1nsc(Oc2cc(C)c(N=CN3CCCCC3)cc2C)n1` [Example 50, 4-{[3-(2-methoxybenzyl)-1,2,4-thiadiazol-5-yl]oxy}-2,5-dimethyl-N-(piperidin-1-ylmethylidene)aniline], for which, in data set [1], the chromatographic logP amounted to 2.05. In addition, in data set [2], the pest or weed control at 100 ppm is ≥ 70%. In addition, the pest or weed control at 500 ppm in data set [3] and in data set [5] was ≥ 70% throughout.

The values are drawn from US8383139B2 (Bayer CropScience AG, priority 2008, dated 2013).
